Test results as given in PMC11329505 (Communications Chemistry, 2024).

What was measured:
AGAL5 = biological target: T1, AGAL5 (Blautia pseudococcoides, UniProt A0A1C7IHX3); test: pNP-αGal colorimetric assay with additive; assay type: biochemical; conditions: 5 mM maltose; pNP-αGal substrate
T1 sequence (A0A1C7IHX3 1-763): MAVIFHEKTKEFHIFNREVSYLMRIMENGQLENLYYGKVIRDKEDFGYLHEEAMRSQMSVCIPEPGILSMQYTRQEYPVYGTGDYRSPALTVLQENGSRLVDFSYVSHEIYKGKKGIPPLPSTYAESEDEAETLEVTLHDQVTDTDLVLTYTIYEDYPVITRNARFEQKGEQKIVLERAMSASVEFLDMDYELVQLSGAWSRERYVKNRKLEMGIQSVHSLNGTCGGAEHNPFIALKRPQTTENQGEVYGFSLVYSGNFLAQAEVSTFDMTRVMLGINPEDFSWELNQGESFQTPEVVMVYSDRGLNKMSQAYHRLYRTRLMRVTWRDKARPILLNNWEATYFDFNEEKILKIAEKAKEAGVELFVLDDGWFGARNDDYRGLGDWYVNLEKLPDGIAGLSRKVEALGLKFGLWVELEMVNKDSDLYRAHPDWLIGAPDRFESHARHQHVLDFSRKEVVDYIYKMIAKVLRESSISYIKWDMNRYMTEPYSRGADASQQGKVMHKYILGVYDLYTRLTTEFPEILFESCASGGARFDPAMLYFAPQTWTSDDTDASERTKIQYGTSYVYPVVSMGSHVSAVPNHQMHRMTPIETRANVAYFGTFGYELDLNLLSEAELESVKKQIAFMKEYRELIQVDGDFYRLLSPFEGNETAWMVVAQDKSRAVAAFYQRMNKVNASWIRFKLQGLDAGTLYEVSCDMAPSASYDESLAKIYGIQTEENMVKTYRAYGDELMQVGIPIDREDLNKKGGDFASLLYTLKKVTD

AGAL3 = biological target: T2, AGAL3 (Turicibacter bilis, UniProt A0A9Q9CI38); test: pNP-αGal colorimetric assay with additive; assay type: biochemical; conditions: 5 mM maltose; pNP-αGal substrate
T2 sequence (A0A9Q9CI38 1-743): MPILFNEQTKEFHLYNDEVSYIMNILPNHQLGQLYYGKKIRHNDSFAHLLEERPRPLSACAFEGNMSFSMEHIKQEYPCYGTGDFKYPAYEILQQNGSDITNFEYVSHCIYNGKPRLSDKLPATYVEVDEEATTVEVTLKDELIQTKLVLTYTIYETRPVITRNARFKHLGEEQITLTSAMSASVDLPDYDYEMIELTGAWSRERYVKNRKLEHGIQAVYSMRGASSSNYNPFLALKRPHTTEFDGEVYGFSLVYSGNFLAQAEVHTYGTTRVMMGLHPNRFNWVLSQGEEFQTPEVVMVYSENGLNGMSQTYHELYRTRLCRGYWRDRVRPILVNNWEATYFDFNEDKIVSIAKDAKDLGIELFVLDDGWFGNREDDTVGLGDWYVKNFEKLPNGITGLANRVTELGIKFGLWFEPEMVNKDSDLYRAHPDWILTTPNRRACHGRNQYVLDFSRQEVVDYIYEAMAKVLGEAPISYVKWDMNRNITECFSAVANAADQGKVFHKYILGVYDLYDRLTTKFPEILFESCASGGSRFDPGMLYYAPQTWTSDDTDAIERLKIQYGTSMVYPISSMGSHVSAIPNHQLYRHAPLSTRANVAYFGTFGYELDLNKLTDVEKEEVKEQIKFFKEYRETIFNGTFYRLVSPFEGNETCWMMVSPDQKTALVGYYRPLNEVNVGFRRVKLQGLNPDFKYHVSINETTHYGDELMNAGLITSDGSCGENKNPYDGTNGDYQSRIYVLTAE

OC[C@H]1O[C@H](O[C@H]2[C@H](O)[C@@H](O)C(O)O[C@@H]2CO)[C@H](O)[C@@H](O)[C@@H]1O (some centres unmarked) [maltose]
inhibition at 5 mM (AGAL5): maltose had an inhibitory effect on AGAL3 and AGAL5 | inhibition at 5 mM (AGAL3): maltose had an inhibitory effect on AGAL3 and AGAL5
